Assay results as given in the supplement of paper PMC10307832.

Key:
Test in all cases: relative viability (nuclei count vs DMSO), 5 days (fraction); higher = more cells survive
Tanzisertib + Decitabine = compound: O[C@H]1CC[C@H](Nc2ncc3nc(Nc4c(F)cc(F)cc4F)n([C@H]4CCOC4)c3n2)CC1 [Tanzisertib] + Nc1ncn([C@H]2C[C@H](O)[C@@H](CO)O2)c(=O)n1 [Decitabine] (partner 2 µM)
Procedure, shortened: (§1)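 The day after seeding in 1536-well plates, lung cancer cell lines were treated by pin tool with a single drug, or with a fixed anchor-drug dose together with five library-drug doses (not always all listed) in √10 steps. After 5 days, a combined fix-and-stain solution (final 0.05% Triton X-100, 1% formaldehyde, 1 ug/ml Hoechst) was added. Nuclei counted on 4× images gave relative viability as treated counts over vehicle counts, reported as the median of duplicate plates.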

[1] = compound: C[C@@H](N)c1ccc(C(=O)Nc2ccnc3[nH]ccc23)cc1 + CC(=O)c1c(C)c2cnc(Nc3ccc(N4CCNCC4)cn3)nc2n(C2CCCC2)c1=O [Palbociclib] (partner 0.5 µM)
Procedure, shortened: as §1

[2] = compound: C[C@@H](N)c1ccc(C(=O)Nc2ccnc3[nH]ccc23)cc1 + COc1cc2c(Oc3ccc(NC(=O)C4(C(=O)Nc5ccc(F)cc5)CC4)cc3F)ccnc2cc1OCCCN1CCOCC1 [Foretinib] (partner 0.25 µM)
Procedure, shortened: as §1

[3] = compound: C1CNCCC1C2=CC(=NN2)C3=CC=NC=C3 + O=C(c1cc(Cc2n[nH]c(=O)c3ccccc23)ccc1F)N1CCN(C(=O)C2CC2)CC1 [Olaparib] (partner 8 µM)
Procedure, shortened: as §1

Cell Line	relative viability (Tanzisertib + Decitabine; first compound 0.253 µM)	relative viability (Tanzisertib + Decitabine; first compound 0.8 µM)	relative viability (Tanzisertib + Decitabine; first compound 2.53 µM)	relative viability (Tanzisertib + Decitabine; first compound 8 µM)	relative viability ([1]; first compound 0.04 µM)	relative viability ([1]; first compound 0.1265 µM)	relative viability ([1]; first compound 0.4 µM)	relative viability ([1]; first compound 1.265 µM)	relative viability ([1]; first compound 4 µM)	relative viability ([2]; first compound 0.04 µM)	relative viability ([2]; first compound 0.1265 µM)	relative viability ([2]; first compound 0.4 µM)	relative viability ([2]; first compound 4 µM)	relative viability ([3]; first compound 0.08 µM)	relative viability ([3]; first compound 0.8 µM)	relative viability ([3]; first compound 2.53 µM)	relative viability ([3]; first compound 8 µM)	relative viability (Tanzisertib + Decitabine; first compound 0.08 µM)	relative viability ([2]; first compound 1.265 µM)
HCC-366	0.381	0.382	0.348	0.254	0.474	0.392	0.379	0.455	0.383	0.987	0.926	0.936	1.07	0.341	0.412	0.498	0.36		
HCC-827	0.372	0.257	0.367	0.207		0.442	0.478	0.476	0.433	1.1	1.13	1.09	0.945	0.597	0.0303	0.665	0.743	0.338	1.11
HOP-62	0.236	0.217	0.248	0.215	0.454	0.463	0.449	0.411	0.397	1.09	1.05	1.03	0.982	0.234	0.386	0.275	0.47	0.212	1.16
IA-LM										1.28	1.33	1.43	1.08	1.02	0.916	0.87	0.846		1.2
LC-2-ad	0.788	0.777	0.806	0.722	0.472	0.53	0.458	0.413	0.411	0.963	0.867	0.873	0.661	0.719	0.781	0.664	0.694	0.774	
LCLC-97TM1	0.264	0.201	0.245	0.228	0.276	0.217	0.341	0.257	0.309	0.928	0.976	0.99	0.94	0.341	0.399	0.429	0.326	0.25	1.06
LCLC-103H	0.768	0.711	0.672	0.72	0.473	0.478	0.433	0.423	0.388	0.901	0.821	0.69	0.643	0.79	0.839	0.717	0.723	0.763	0.77
LK-2	0.379	0.217	0.381	0.221	0.826	0.7	0.655	0.485	0.912	1.32		1.49	1.46		0.872	0.897	0.707	0.325	
LOU-NH91	0.82	0.837	0.805	0.635	0.581	0.527	0.533	0.536	0.448	0.814	0.981	0.851	0.683	0.927	0.963	0.974	0.877	0.869	0.804
LU99A	0.88	0.984	0.874	0.911		0.372	0.387	0.343	0.275		0.875	0.714	0.621	0.257	0.259	0.269	0.314	1.03	0.681
LXF-289	0.379	0.387	0.416	0.39	0.613	0.611	0.565	0.61	0.512	1.11	0.993	0.987	0.843	1.04	1.16	0.968	1.05	0.419	1.07
NCI-H23	0.301	0.32	0.282	0.374	0.532	0.644	0.545		0.441	0.985	1.09	0.981	1.01	0.375		0.403	0.349	0.3	
NCI-H322M	0.743	0.746	0.705	0.695	0.534	0.584	0.526	0.515	0.524	1.29	1.19	1.29	1.39	0.73	0.716	0.844	0.923	0.724	
NCI-H522	0.699	0.618	0.803	0.636	1.03	0.986	1.1	1.02	0.874					0.63	0.712	0.726	0.803	0.807	
NCI-H596	1.08	0.982	1	0.863						1.07	0.82	0.772	0.761	0.733	0.709	0.687	0.72	0.986	
NCI-H1299										1.09	1.07	0.985	0.886	1.03	0.97	0.946	0.91		0.951
NCI-H1563										0.974	0.986	0.876	0.914						0.923
NCI-H1623										0.969	0.859	0.992	1.07						0.655
NCI-H1648	0.6	0.613	0.524	0.376	0.267	0.34	0.279	0.371	0.414					1.02	0.817		1.3	0.487	
NCI-H1703										0.409	0.274	0.333	0.324	0.375	0.72	0.443	0.431		
NCI-H1792	0.539	0.487	0.569	0.566	0.685	0.698	0.699	0.771	0.627					0.504	0.385	0.471	0.353	0.668	
NCI-H2228					0.808	0.806	0.909	0.352	0.839	1.03	0.743	1.02	0.866	0.617	0.747	0.575	0.549		0.911
